Key:
male Wistar rats = experiment: Spatial memory in the Morris water maze; type: in vivo; settings: rat
Experimental: The Morris water-maze test (Morris [1984]) was performed as previously described (Kraev et al. [2011]) with slight modifications (see Data S1). Male Wistar rats (Charles River), weighing 150–200 g on the day of arrival were used. To investigate for potential effects on memory consolidation, neurolide-1 was injected immediately after the training sessions on day 1 and 2 (n = 12 in each group). To test for potential effects on memory acquisition neurolide-1 was injected 2 h before start of training on training day 1 and 2 (n = 12 in each group). Finally, to test for potential effects on MK-801-induced learning deficiencies neurolide-1 was injected 2 h before start of training on day 2 and 3 in animals, which had received an injection with MK-801 30 min earlier (n = 6–9 in each group). In a slightly modified version of the MK-801 experiments a group of animals received a neurolide-1 injection immediately after the training sessions on day 1, and then a neurolide-1 injection 2 h before start of training on day 2, preceded by an MK-801 injection 30 min earlier (n = 12 in each group). Terminally, rats were rapidly and humanely rendered unconscious by concussive stunning and euthanized by cervical dislocation.
The Morris water maze test (Morris, 1984) was conducted in a 160 cm wide circular black tank placed in a dimly lit room and filled with 21°C water up to 20 cm from the top. The tank was surrounded by visual orientation marks, and a 10 cm wide escape platform was placed 1.5 cm below the water level for it to be unseen. A video camera was placed above the tank and connected to a computerized tracking system (Ethovision 3.1, Noldus IT, Wageningen, Holland). The tank was divided into four equal-size quadrants that also served as starting positions. The latency to locate the platform, time spent swimming, and swimming speed were scored within the defined zones (i.e., total area, quadrants, and a platform circle that was 60 cm in diameter with the center in the original platform location). Prior to training, the rats were handled 2 min daily for 5 days to minimize stress during the experiments.
Reference memory training consisted of three consecutive trials daily for 3 days. Each trial began with placing the animal in the water facing the wall of the pool. The starting position differed for each trial but was identical for all animals. In each trial, the animal was allowed 90 s to locate the platform. […] After each trial, the rats were allowed 20 s of orientation time on the platform and then removed from the pool for 20 s before the next trial was initiated. After the last trial each day, the animals were dried and returned to their home cages.
To test for effects on long-term memory, the animals were tested in a probe trial 24 h after the last reference memory training. In the probe trial, the platform was removed, and the animals began from a position in a quadrant adjacent to the original platform quadrant. The rats were allowed to swim for 60 s, after which the trial was stopped.

hippocampal neurons = settings: NX-1β expression-dependent, in contrast to the peptide without the B insert; ref Gjorlund et al. [2012]; cited from earlier work
Text: (§1) We recently investigated the functional role of the NL1 B insert using a peptide, termed neurolide-1, that encompasses the NL1-binding site for NX1, including the B insert.

[1] = in vivo intra-hippocampal treatment; ref van der Kooij et al. [2014]; cited from earlier work
Text: as §1

NX-1β = settings: ref Gjorlund et al. [2012]; cited from earlier work
Text: as §1

adult male Wistar rats = experiment: Social recognition test; type: in vivo; settings: rat
Experimental: Social memory in animals reflects the ability to recognize conspecifics as familiar or unfamiliar. The social recognition test was performed basically as described previously (Secher et al. [2006]), (see Data S1). […] Rats were handled 5 days prior to the experiment and habituated to the transparent test cages for 1 h before start of experiment. The tests included three trials (T1–3), separated by intertribal periods of 2 and 24 h, with the test rat being introduced to a 3-week-old juvenile conspecific (40–50 g; Charles River) for 4 min each time. Investigative behavior was recorded and used to calculate recognition ratios (RR) as previously described (Kogan et al. [2000]). Retention periods longer than 1 h are believed to result in no or only minimal retention of social memory (Popik and van Ree [1998]; Secher et al. [2006]). Terminally, rats were rapidly and humanely rendered unconscious by concussive stunning and euthanized by cervical dislocation.
Social memory in animals reflects the ability of individuals to recognize conspecifics as familiar or unfamiliar. The animals were handled for 5 days prior to the experiments to minimize stress, habituated to the test cage, and trained to interact with a juvenile rat. Two groups of adult rats were used: a control group and a neurolide-1-treated group. Neurolide-1 (10 mg/kg) or vehicle (saline, 1 ml/kg) was injected subcutaneously (s.c.) two times, 24 and 2 h before the experiment. […] In the first trial, a 3-week-old juvenile male rat was introduced to the experimental adult rat for 4 min, and the time spent investigating the juvenile (e.g., licking, sniffing, chewing, and close following) was scored. Two hours later, a second trial was performed by reintroducing the same juvenile to the test rat to for 4 min, and investigative behavior was recorded. From the two trials, a recognition ratio (RR) was calculated as T2 / (T1 + T2), in which T1 and T2 were the times spent investigating the juvenile during the first and second trials, respectively. […]

Sequence: SEGNRWSNSTKGLFQRA [neurolide-1]
- learning, velocity and memory retention in probe test (memory acquisition) (male Wistar rats; 10 mg/kg s.c. 2 h before training sessions on days 1 and 2, n = 12): No effect
- learning on day 2 or 3 and memory retention in probe test (memory consolidation) (male Wistar rats; 10 mg/kg s.c. immediately after last training session on days 1 and 2, probe test 24 h after last training, n = 12): No effect
- velocity in the water maze (male Wistar rats; MK-801 0.1 mg/kg s.c. with or without neurolide-1 10 mg/kg s.c. (long-term regimen), n = 12): Neither treatments affected velocity
- effect on MK-801-impaired learning and memory retention, short-term treatment (male Wistar rats; neurolide-1 10 mg/kg s.c. 30 min after MK-801 0.1 mg/kg and 2 h before first trial on days 2 and 3, n = 6-9): did not reduce the effect of MK-801
- effect on MK-801-impaired learning (escape latency) (male Wistar rats; neurolide-1 10 mg/kg s.c. after training on day 1 and on day 2, 30 min after MK-801 0.1 mg/kg and 2 h before first training session, n = 12): attenuated the effect of the NMDA receptor inhibitor on learning
- effect on MK-801-impaired memory in the probe test 24 h after last training session (male Wistar rats; neurolide-1 10 mg/kg s.c. after training on day 1 and on day 2, 30 min after MK-801 0.1 mg/kg, n = 12): completely abrogated the effect of MK-801
- neurite outgrowth in hippocampal neurons (hippocampal neurons): induce neurite outgrowth
- sociability and aggression [1]: did not demonstrate such effects
- binding to NX-1β (NX-1β): bind NX-1β
- long-term social memory, 24 h after the first trial (adult male Wistar rats; 10 mg/kg s.c. 24 and 1 h before first trial, n = 12): did not exhibit an improvement in social memory
- short-term social memory (recognition ratio), intertrial interval 2 h (adult male Wistar rats; 10 mg/kg s.c. 24 and 1 h before first trial, same juvenile, n = 12, P < 0.001 vs control): enhanced social memory
- recognition ratio with a new unfamiliar juvenile in the second trial (adult male Wistar rats; 10 mg/kg s.c. twice, control test, compared with vehicle group or theoretical value 0.5, n = 12): did not lead to a decrease in the RR
